Laboratory results from patent publication US6060604A, “Pharmaceutical compounds comprising polyamines substituted with electron-affinic groups” (priority 1996, dated 2000).
Where “and” joins values, the source holds several entries; their conditions need not be identical. Equal entries are not always repeated. Structures can show the parent of a compound that is named as a salt.

Key:
[1] = system: H. pylori; test: modified bottle broth method, H. pylori growth inhibition; assay type: cell-based
[2] = system: MTG-B mammary adenocarcinoma tumors; test: in vivo radiosensitization of MTG-B mammary adenocarcinoma tumors in mice; set-up: species or system female C3H mice
Experimental: To determine whether the pronounced effects of DATM in tissue culture can be duplicated in solid tumors, in vivo studies were performed on mice bearing MTG-B mammary adenocarcinoma tumors. The tumors were grown subcutaneously in the right flank of 7-week old female C3H mice. When the tumor diameter reached 8 mm, 8-carbon DATM was administered to groups of mice either intraperitoneally or orally at 2 g/kg, and 2 or 4 h later the tumors were subjected to an X-ray dose of 22 Gy. Control mice bearing identical tumors were either left untreated or treated with radiation alone or drug alone. For irradiation, the mice were placed into lead holders with the tumor-bearing leg exposed. After treatment, the tumor diameters were measured daily by caliper and the time required for tumors to grow to twice their initial size was calculated as tumor doubling time (TDT), with the treatment day defined as Day 0 for all calculations and plots, The survival time for mice was also recorded in all treatment groups.
To evaluate radiosensitization at different radiation doses, additional experiments were carried out where mice receiving DATM (2 g/kg body weight, given orally) were exposed to different radiation doses (0, 12, 22, 32 Gy).
FIG. 10 compares the effectiveness of oral DATM (2 g/kg body weight) to that of a much smaller DATM dose (25 mg/kg body weight) injected directly into the tumor.

[3] = system: H. pylori; test: agar dilution method, inhibition of H. pylori growth; assay type: cell-based, H. pylori strain ATCC43504
[4] = system: H. pylori; test: disk diffusion method, H. pylori growth inhibition; assay type: cell-based
[5] = system: mice; test: later in vivo toxicity, oral, mice
[6] = system: hypoxic CHO cells; test: radiosensitizing potency on hypoxic CHO cells as a function of linker length (Table 3); assay type: cell-based, Chinese hamster; settings: 8 Gy; for Sensitization Ratio at 20% Cell Survival Level: vs metronidazole, by linker (spacer chain) length
Experimental: The experiment shown in Table 3 is a later experiment which was conducted to determine the effect of the spacer chain (i.e., A) length. CHO cells were plated and allowed to attach to petri dishes for 3 h, then the media was replaced with 5 ml of Hank's Balanced Salt Solution with or without drugs. To induce cell hypoxia, the dishes were placed in sealed aluminum chambers which were degassed by pumping, and then back filled with 95% N2 /5% CO2. After 4 cycles, when the cells were severely hypoxic, the chambers were exposed to an X-ray beam generated by a General Electric Maxitron 300 therapy machine operated at 250 kVp and 20 mA (HVL 20 mm Al filter; dose rate at 2 Gy/min). The cells were cultured for 7 days in a 37° C. incubator and the resulting cell colonies were stained and counted.

[7] = system: CHO cells; test: radiosensitization potency on hypoxic CHO cells at 20% survival, single X ray dose 8 Gy (Table 2); assay type: cell-based, Chinese hamster; settings: for IC80: Cricetulus griseus, CHO, read-out: drug molarity required to reduce cell survival to 20% of the untreated control value; for times more potent than metronidazole: hypoxic, 20% survival; for times more potent than metronidazole / Sensitization Ratio at 20% Survival Level: 8 Gy; for Sensitization Ratio at 20% Survival Level: vs metronidazole
Experimental: (§1) Cells were plated and allowed to attach on glass petri dishes for 3 h, then the media was replaced with 5 ml of Hank's balanced salt solution (HBSS) with or without drugs. To induce cell hypoxia, the dishes were placed at room temperature into sealed aluminum chambers (8 dishes/chamber). The chambers were degassed by pumping, and then back-filled with 95% N2 and 5% CO2. This procedure was repeated 4 times with 5 min holding periods under positive gas pressure between evacuations. After 1 h, when the cells were severely hypoxic, the chambers were placed in 37° C. water bath for 1 hr. For oxic treatment groups, cells were placed in 37° C. incubators for 2 h with 5 ml of HBSS (±drugs). The chambers were placed on a rotating table and exposed to an X-ray beam generated by a General Electric Maxitron 300 therapy machine operated at 250 kVp and 20 mA (HVL 20 mm Al filter; dose rate at 2 Gy/min). After irradiation, cells were rinsed with HBSS, and covered with fresh media. Cells were cultured for 7 days in a 37° C. incubator. The resulting cell colonies were stained and counted.
In the experiment shown in Table 2 hypoxic CHO cells were irradiated with a single X ray dose of 8 Gy, with or without drugs.

[8] = system: CHO cells; test: thermo-radiosensitization of hypoxic CHO cells, colony forming assay (Table 4); assay type: cell-based, Chinese hamster; settings: 41° C.; for combined drug/mild hyperthermia effect on radiosensitivity: hypoxic CHO cells; for Do: 30 min
Experimental: To examine the thermo-radiosensitizing effects of compounds (8) and (10), hypoxic CHO cells were irradiated (with or without drugs) with radiation doses ranging from 0-30 Gy. After irradiation, the chambers were placed either in a 37° C. or in a 41° C. water bath for 30 min. Then cell survival was evaluated by the colony forming assay.

[9] = system: Chinese hamster ovary (CHO) cells; test: in vitro radiosensitization of hypoxic CHO cells, colony formation (Table 1); assay type: cell-based; settings: drug dose 0.1 mM; for SFR (N2)(18 Gy), surviving fraction ratio: hypoxic
Experimental: as §1, with “The chambers were degassed by pumping, and then back-filled with 95% N2 and 5% CO2.” left out

[10] = as radiosensitizers; cited from earlier work
[11] = system: hypoxic CHO cells; test: radiosensitizing hypoxic CHO cells, drugs given 2 hours at 4° C.; assay type: cell-based, Chinese hamster
[12] = system: hypoxic CHO cells; test: in vitro toxicity on hypoxic CHO cells, colony formation; assay type: cell-based, Chinese hamster; settings: 0.2 mM, 12 hours at 37° C.
Experimental: Subsequently, hypoxic CHO cells were incubated with 0.2 mM DATM or 10 mM metro for 12 hours at 37° C.

[13] = system: mice; test: preliminary in vivo toxicity, intraperitoneal, mice
Experimental: In a preliminary in vivo study, two groups of mice were injected intraperitoneally with either 1 g/kg or 4 g/kg of DATM (formula 8).

[14] = solubility in water; assay type: physicochemical; settings: d-gluconic acid salt
Experimental: A solution of N, N, N', N'-tetra[2'-(2-methyl-5-nitro-1-imidazolyl)ethyl]-1,8-octanediamine free base was prepared by dissolving 0.5 g of N, N, N', N'-tetra[2'-(2-methyl-5-nitro-1-imidazolyl)ethyl]-1,8-octanediamine in 20 ml of CH2 Cl2. To this solution, 2 g of gluconic acid in 5 ml of water was added. To the resultant mixture, pure MeOH was added dropwise until the mixture became a homogeneous solution. To this, 50 ml of ether, followed by 200 ml of hexane were added to precipitate the solid. The reaction mixture was cooled to 4° C., and the precipitated salt was removed by filtration through a sintered glass funnel, washed with anhydrous ether and dried under vacuum.

[15] = DATM (2 g/kg, i.p. or oral) + radiation 22 Gy

## Cc1ncc([N+](=O)[O-])n1CCN(CCCCCCCCN(CCn1c([N+](=O)[O-])cnc1C)CCn1c([N+](=O)[O-])cnc1C)CCn1c([N+](=O)[O-])cnc1C [8-carbon DATM, N, N, N', N'-tetra[2'(2-methyl-5-nitro-1-imidazolyl)ethyl]-1,8-octanediamine]
[1]
  ratio of the two MIC (metronidazole/DATM): 132.63
[2]; 25 mg/kg intratumor vs 2 g/kg i.p., 22 Gy
  sensitization effect of intratumor injection vs intraperitoneal: same sensitization effect as 2 g/kg given intraperitoneally
[2]; 25 mg/kg intratumor vs 2 g/kg oral
  effectiveness of intratumor injection vs oral: much more effective than oral drug administration
[2]; 2 g/kg orally, radiation doses 0, 12, 22, 32 Gy
  life span of tumor-bearing mice: pronounced increase in the life span of tumor-bearing mice at all radiation doses studied
[2]; 8-carbon DATM alone
  tumor doubling time (TDT): 4 days
[2]; 8-carbon DATM alone, 2 g/kg, no radiation
  survival time of mice: 13 to 15 days
[2]; [15]
  increase of survival time: 157-179%
  survival time: 36 days and 39 days
[2]; DATM + radiation
  effectiveness in delaying tumor growth relative to radiation alone: ~3 times
  tumor doubling time (TDT): 18 days
[2]; equal drug dose, 22 Gy
  effectiveness of oral vs intraperitoneal: slightly less effective than an equal drug dose administered intraperitoneally
[3]
  ratio of the MIC of metronidazole over that of DATM: 35.37
[4]
  times more potent than metronidazole in killing H. pylori: 22.1 times
[5]; oral
  times less toxic to mice than metronidazole: at least 5 times
[5]; oral doses as high as 20 g/kg
  toxicity: no toxicity was observed
[6]
  Sensitization Ratio at 20% Cell Survival Level: 510

## Cc1ncc([N+](=O)[O-])n1CCN(CCCCCN(CCn1c([N+](=O)[O-])cnc1C)CCn1c([N+](=O)[O-])cnc1C)CCn1c([N+](=O)[O-])cnc1C [Compound 10, N, N, N', N'-tetra[2'-(2-methyl-5-nitro-1-imidazolyl)ethyl]-1,5-pentanediamine]
[7]
  IC80: 25 µM
  times more potent than metronidazole: 400 times
  Sensitization Ratio at 20% Survival Level: 400
[8]
  combined drug/mild hyperthermia effect on radiosensitivity: hypoxic cells become even more radiosensitive (smaller D0) than fully oxic cells
[8]; drug dose 10 μM
  Do: 0.6 Gy
[9]
  Do: 1.9 Gy
  Ratio of RT Dose For 0.04 SF: 1.5
  SFR (N2)(18 Gy), surviving fraction ratio: 21.4

## Cc1ncc([N+](=O)[O-])n1CCN(CCCCCN(CCn1c([N+](=O)[O-])cnc1C)CCn1c([N+](=O)[O-])cnc1C)CCn1c([N+](=O)[O-])cnc1C [5-carbon DATM, N, N, N', N'-tetra[2'-(2-methyl-5-nitro-1-imidazolyl)ethyl]-1,5-pentanediamine]
[6]
  Sensitization Ratio at 20% Cell Survival Level: 80

## COCC(O)Cn1ccnc1[N+](=O)[O-] (centres unmarked) [misonidazole]
[10]
  toxicity at therapeutic levels: highly toxic at therapeutic levels

## Cc1ncc([N+](=O)[O-])n1CCN(CCCCN(CCn1c([N+](=O)[O-])cnc1C)CCn1c([N+](=O)[O-])cnc1C)CCn1c([N+](=O)[O-])cnc1C [Compound 8, N, N, N', N'-tetra [2'-(2-methyl-5-nitro-1-imidazolyl)ethyl]-1,4-butanediamine]
[7]
  IC80: 200 µM
  times more potent than metronidazole: 50 times
  Sensitization Ratio at 20% Survival Level: 50
[11]
  radiosensitizing effectiveness, 0.2 mM DATM vs 10 mM metro: equally effective
[12]
  toxic effects on CHO cells: No toxic effects were noted
[13]; 1 g/kg intraperitoneally, mice
  toxicity: No toxicity was observed
[13]; 4 g/kg intraperitoneally, mice
  lethality: all mice of the 4 g/kg group died
[13]; same dosage
  toxicity compared to metro: roughly comparable to that of metro for the same dosage
[8]
  combined drug/mild hyperthermia effect on radiosensitivity: hypoxic cells become even more radiosensitive (smaller D0) than fully oxic cells
[8]; drug dose 50 μM
  Do: 0.8 Gy
[9]
  Do: 2.5 Gy
  Ratio of RT Dose For 0.04 SF: 1.5
  SFR (N2)(18 Gy), surviving fraction ratio: 9.0

## Cc1ncc([N+](=O)[O-])n1CCN(CCCCCCN(CCn1c([N+](=O)[O-])cnc1C)CCn1c([N+](=O)[O-])cnc1C)CCn1c([N+](=O)[O-])cnc1C [Linker Length 6]
[6]
  Sensitization Ratio at 20% Cell Survival Level: 120

## Cc1ncc([N+](=O)[O-])n1CCN(CCCCN(CCn1c([N+](=O)[O-])cnc1C)CCn1c([N+](=O)[O-])cnc1C)CCn1c([N+](=O)[O-])cnc1C [Linker Length 4, N, N, N', N'-tetra [2'-(2-methyl-5-nitro-1-imidazolyl)ethyl]-1,4-butanediamine]
[6]
  times more potent/effective than metronidazole: 50 times
  Sensitization Ratio at 20% Cell Survival Level: 50

## Cc1ncc([N+](=O)[O-])n1CCN(CCCCCCCN(CCn1c([N+](=O)[O-])cnc1C)CCn1c([N+](=O)[O-])cnc1C)CCn1c([N+](=O)[O-])cnc1C [Linker Length 7]
[6]
  Sensitization Ratio at 20% Cell Survival Level: 220

## Cc1ncc([N+](=O)[O-])n1CCN(CCCCCCCCN(CCn1c([N+](=O)[O-])cnc1C)CCn1c([N+](=O)[O-])cnc1C)CCn1c([N+](=O)[O-])cnc1C [Example 5, N, N, N', N'-tetra[2'-(2-methyl-5-nitro-1-imidazolyl)ethyl]-1,8-octanediamine gluconic acid salt]
[14]
  solubility in water: highly soluble in water
